# Test results published in US8067424B2, “Selective inhibitors for cyclin-dependent kinases” (Emory University, priority 2007, dated 2011).
# Read-outs that look alike come from different tables or passages of the source.
# Key:
# Format in all cases: biochemical
# [1] = biological target: ERK1 (Homo sapiens, UniProt P27361); assay: Kinase screen: ERK1 assay
# Protocol: (§1) Generally, the same procedure was used for all assays. Since the total assay volume was 25.5 microliters, 0.5 microliters of inhibitors at 51× assay concentration were added to the plates before any other addition.
# (§2) The basic procedure was to add 0.5 microliters inhibitor/control in DMSO to plate. Fifteen microliters of enzyme/substrate/buffer mix were added and incubated for 5 min. Ten microliters MgATP at the relevant concentration were added and incubated for 30 min. The assay was stopped by adding 5 microliters of 3% orthophosphoric acid. The assay was transferred to a p81 filter plate and read in a scintillation counter of 30 sec/well. Note that this assay procedure was not followed for MKK1, which instead involved a two-step assay, and PKC alpha, which required the addition of lipid vesicles.
# ERK1 assay: 5-20 mU of ERK1 (diluted in 50 mM Tris (pH 7.5), 0.1 mM EGTA, 1 mg/ml BSA, 0.1%, b-Mercaptoethanol) was assayed against MBP in a final volume of 25.5 μl containing 50 mM Tris (pH 7.5), 0.1 mM EGTA, 0.1%, b-Mercaptoethanol, 0.33 mg/ml MBP, 10 mM magnesium acetate and 0.005 mM [33P-g-ATP] (500-1000 cpm/pmole) and incubated for 30 mins at room temperature. Assays were stopped by addition of 5 μl of 0.5M (3%) orthophosphoric acid. Assays were harvested onto P81 Unifilter plates using a wash buffer of 50 mM orthophosphoric acid.
# [2] = biological target: MNK2 (Homo sapiens, UniProt Q9HBH9); assay: Kinase screen: MNK2 alpha assay
# Protocol: as §1, §2
# MNK2 alpha assay: 5-20 mU of MNK2 (diluted in 50 mM Tris (pH 7.5), 0.1 mM EGTA, 1 mg/ml BSA, 0.1%, b-Mercaptoethanol) was assayed against substrate peptide (eIF4E) in a final volume of 25.5 μl containing 50 mM Tris (pH 7.5), 0.1 mM EGTA, 0.1%, b-Mercaptoethanol, 0.5 mg/ml substrate peptide, 10 mM magnesium acetate and 0.05 mM [33P-g-ATP](500-1000 cpm/pmole) and incubated for 30 mins at room temperature. Assays were stopped by addition of 5 μl of 0.5M (3%) orthophosphoric acid. Assays were harvested onto P81 Unifilter plates using a wash buffer of 50 mM orthophosphoric acid.
# [3] = biological target: T1, DYRK3 (Homo sapiens, UniProt O43781); assay: Kinase screen: DYRK3 assay
# T1 sequence (O43781 1-588): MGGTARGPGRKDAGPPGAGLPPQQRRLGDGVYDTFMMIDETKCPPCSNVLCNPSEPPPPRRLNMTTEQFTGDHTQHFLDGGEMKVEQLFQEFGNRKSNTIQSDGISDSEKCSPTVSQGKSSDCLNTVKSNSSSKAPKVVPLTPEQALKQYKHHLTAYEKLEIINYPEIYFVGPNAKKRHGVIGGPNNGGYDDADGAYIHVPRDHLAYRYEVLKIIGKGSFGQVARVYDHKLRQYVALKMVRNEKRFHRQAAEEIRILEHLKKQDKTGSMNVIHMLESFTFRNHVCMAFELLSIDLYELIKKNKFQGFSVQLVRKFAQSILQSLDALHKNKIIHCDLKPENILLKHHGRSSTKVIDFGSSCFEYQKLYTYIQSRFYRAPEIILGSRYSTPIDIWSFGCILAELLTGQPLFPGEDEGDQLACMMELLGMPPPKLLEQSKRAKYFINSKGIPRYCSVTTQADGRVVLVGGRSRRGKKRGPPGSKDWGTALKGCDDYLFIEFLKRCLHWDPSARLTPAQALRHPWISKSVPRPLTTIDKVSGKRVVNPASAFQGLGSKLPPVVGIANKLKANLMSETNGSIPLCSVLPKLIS
# Protocol: as §1, §2
# DYRK3 assay: DYRK3 (5-20 mU of diluted in 50 mM Tris pH7.5, 0.1 mM EGTA) was assayed against Woodtide ([…]) (SEQ ID NO: 29) in a final volume of 25.5 μl containing 50 mM Tris pH 7.5, 0.1 mM EGTA, 350 μM substrate peptide, 10 mM Magnesium acetate and 0.005 mM [33P-g-ATP] (50-1000 cpm/pmole) and incubated for 30 min at room temperature. Assays were stopped by addition of 5 μl of 0.5 M (3%) orthophosphoric acid and then harvested onto P81 Unifilter plates with a wash buffer of 50 mM orthophosphoric acid.
# [4] = biological target: PIM1 (Homo sapiens, UniProt P11309); assay: Kinase screen: PIM1 assay
# Protocol: as §1, §2
# (§3) PIM1 assay: PIM1 (5-20 mU diluted in 50 mM Tris pH 7.5, 0.1 mM EGTA, 0.1% b-mercaptoethanol, 1 mg/ml BSA) was assayed against a substrate peptide ([…]) (SEQ ID NO: 23) in a final volume of 25.5 μl containing 50 mM Tris pH 7.5, 0.05% b-mercaptoethanol, 300 μM substrate peptide, 10 mM magnesium acetate and 0.02 mM [33P-g-ATP] (50-1000 cpm/pmole) and incubated for 30 min at room temperature. Assays were stopped by addition of 5 μl of 0.5 M (3%) orthophosphoric acid and then harvested onto P81 Unifilter plates with a wash buffer of 50 mM orthophosphoric acid.
# [5] = biological target: EFK2 (Homo sapiens, UniProt O00418); assay: Kinase screen: EF2K assay
# Protocol: as §1, §2
# as §3, with “EF2K” for “PIM1”, “Hepes” for “Tris”, “6.6,” for “7.5, 0.1 mM EGTA,”, “27)” for “23)”, “6.6, 0.2 mM CaCl2, 0.3 μM Calmodulin,” for “7.5,”, “0.005” for “0.02”
# [6] = 10 micromolar compound, read-out: mean activity remaining (as a percentage of the original activity), ERK1
# [7] = 10 micromolar compound, read-out: mean activity remaining (as a percentage of the original activity), MNK2
# [8] = 10 micromolar compound, read-out: mean activity remaining (as a percentage of the original activity), DYRK 3
# [9] = 10 micromolar compound, read-out: mean activity remaining (as a percentage of the original activity), PIM1
# [10] = 10 micromolar compound, read-out: mean activity remaining (as a percentage of the original activity), EFK2
# Sequence of MNK2 (Q9HBH9 whole entry, species assumed): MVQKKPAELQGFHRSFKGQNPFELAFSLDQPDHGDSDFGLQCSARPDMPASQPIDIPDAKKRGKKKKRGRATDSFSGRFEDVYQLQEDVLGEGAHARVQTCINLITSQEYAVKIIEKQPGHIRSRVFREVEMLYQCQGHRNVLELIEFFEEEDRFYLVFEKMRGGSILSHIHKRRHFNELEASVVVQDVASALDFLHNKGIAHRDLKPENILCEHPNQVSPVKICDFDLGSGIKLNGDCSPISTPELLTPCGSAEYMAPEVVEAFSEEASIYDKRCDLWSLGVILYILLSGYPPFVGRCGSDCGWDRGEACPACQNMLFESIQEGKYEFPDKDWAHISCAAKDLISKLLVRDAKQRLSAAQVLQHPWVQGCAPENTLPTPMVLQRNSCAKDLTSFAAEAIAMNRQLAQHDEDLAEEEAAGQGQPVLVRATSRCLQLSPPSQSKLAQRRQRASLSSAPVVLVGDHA
# Sequence of ERK1 (P27361 whole entry, species assumed): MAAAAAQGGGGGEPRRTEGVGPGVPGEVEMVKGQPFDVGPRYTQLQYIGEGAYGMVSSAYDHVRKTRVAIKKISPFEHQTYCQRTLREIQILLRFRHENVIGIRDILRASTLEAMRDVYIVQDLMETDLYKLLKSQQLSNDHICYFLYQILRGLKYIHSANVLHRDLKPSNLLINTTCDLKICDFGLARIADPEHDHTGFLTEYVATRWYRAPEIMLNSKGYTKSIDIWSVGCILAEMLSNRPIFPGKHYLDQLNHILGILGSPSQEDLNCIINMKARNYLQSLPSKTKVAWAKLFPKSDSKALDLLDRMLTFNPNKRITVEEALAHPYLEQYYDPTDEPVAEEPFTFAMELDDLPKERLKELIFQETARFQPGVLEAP
# Sequence of PIM1 (P11309 whole entry, species assumed): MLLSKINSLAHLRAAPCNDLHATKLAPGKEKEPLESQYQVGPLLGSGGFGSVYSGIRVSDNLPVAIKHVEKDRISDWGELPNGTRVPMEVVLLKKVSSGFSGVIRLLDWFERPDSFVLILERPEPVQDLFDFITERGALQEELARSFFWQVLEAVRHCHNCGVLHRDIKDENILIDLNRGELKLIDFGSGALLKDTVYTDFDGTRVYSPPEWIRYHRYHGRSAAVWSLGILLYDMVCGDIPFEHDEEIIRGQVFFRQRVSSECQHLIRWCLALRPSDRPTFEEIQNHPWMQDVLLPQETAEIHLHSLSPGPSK
Structure (SMILES),"remaining activity at 10 µM [1, 6]","remaining activity at 10 µM [2, 7]","remaining activity at 10 µM [3, 8]","remaining activity at 10 µM [4, 9]","remaining activity at 10 µM [5, 10]",further results
CC(C)c1cnn2c(NCc3ccccc3)cc(NCCCCCCCN)nc12 [BS-181],–,–,–,–,–,"remaining activity at 10 µM ([1]; ERK1, 10 μM, read-out: Mean Remaining Enzyme Activity (%)): 108%; remaining activity at 10 µM ([2]; MNK2, 10 μM, read-out: Mean Remaining Enzyme Activity (%)): 105%; remaining activity at 10 µM ([3]; DYRK3, 10 μM, read-out: Mean Remaining Enzyme Activity (%)): 87%; remaining activity at 10 µM ([4]; PIM1, 10 μM, read-out: Mean Remaining Enzyme Activity (%)): 88%; remaining activity at 10 µM ([5]; EFK2, 10 μM, read-out: Mean Remaining Enzyme Activity (%)): 119%"
C=C[C@H](CO)Nc1cc(NCc2ccccc2)n2ncc(C(C)C)c2n1 [ICEC0065],84%,83%,86%,113%,97%,–
CC[C@H](CO)Nc1cc(NCc2ccccc2)n2ncc(C(C)C)c2n1 [ICEC0067],69%,84%,90%,107%,95%,–
"CC(C)c1cnn2c(NCc3ccccc3)cc(N[C@@H](CO)[C@H](O)CO)nc12 [ICEC0318, (3S)-3-(7-(Benzylamino)-3-isopropylpyrazolo[1,5-a]pyrimidin-5-ylamino)butane-1,2,4-triol]",42%,136%,88%,103%,92%,–
CC(C)c1cnn2c(NCc3ccccc3F)cc(NCCCCCN)nc12 [ICEC-0232],–,–,–,–,–,"mean activity remaining (as a percentage of the original activity), ERK1 ([1]; 10 micromolar compound): 90%; mean activity remaining (as a percentage of the original activity), MNK2 ([2]; 10 micromolar compound): 88%; mean activity remaining (as a percentage of the original activity), DYRK 3 ([3]; 10 micromolar compound): 60%; mean activity remaining (as a percentage of the original activity), PIM1 ([4]; 10 micromolar compound): 110%; mean activity remaining (as a percentage of the original activity), EFK2 ([5]; 10 micromolar compound): 98%"
